Data published in patent US20240000075A1, “FUNGICIDAL ARYL AMIDINES” (CORTEVA AGRISCIENCE LLC, priority 2020, published 2024).
Where two headings read alike, the source gives them in different places.

Legend:
Puccinia triticina = experiment: Wheat brown rust, whole-plant fungicidal activity (PUCCRT); format: in vivo, Puccinia triticina on wheat plants (variety 'Yuma'); conditions: 24 h, 1DP (1 day protectant), read-out: % Disease Control Rating PUCCRT
Experimental: Technical grades of materials were dissolved in acetone, which were then mixed with nine volumes of water (H2O) containing 110 ppm Triton X-100. The fungicide solutions were applied onto wheat seedlings using an automated booth sprayer to run-off. All sprayed plants were allowed to air dry prior to further handling. All fungicides were evaluated using the aforementioned method for their activity vs. all target diseases, unless stated otherwise.
Example B: Evaluation of Fungicidal Activity: Wheat Brown Rust (Puccinia triticina; Synonym: Puccinia recondita f sp. tritici; Bayer Code PUCCRT)
Wheat plants (variety ‘Yuma’) were grown from seed in a greenhouse in soil-less potting mix until the first leaf was fully emerged, with 7-10 seedlings per pot. These plants were inoculated with an aqueous spore suspension of Puccinia triticina after fungicide treatments. After inoculation, the plants were kept in a dark dew room with 100% relative humidity overnight to permit spores to germinate and infect the leaf. The plants were then transferred to a greenhouse for disease to develop. Fungicide formulation, application and disease assessment followed the procedures as described in Example A.

Rhynchosporium commune = experiment: Leaf blotch of barley, whole-plant fungicidal activity (RHYNSE); format: in vivo; conditions: 24 h, 1DP (1 day protectant), read-out: % Disease Control Rating RHYNSE
Experimental: Technical grades of materials were dissolved in acetone, which were then mixed with nine volumes of water (H2O) containing 110 ppm Triton X-100. The fungicide solutions were applied onto wheat seedlings using an automated booth sprayer to run-off. All sprayed plants were allowed to air dry prior to further handling. All fungicides were evaluated using the aforementioned method for their activity vs. all target diseases, unless stated otherwise. Example D: Evaluation of Fungicidal Activity: Leaf Blotch of Barley (Rhynchosporium commune; Bayer Code […]) Barley plants (variety 'Harrington') were grown from seed in a greenhouse in soil-less potting mix until the first leaf was fully emerged, with 7-10 seedlings per pot. These plants were inoculated with an aqueous spore suspension of Rhynchosporium commune after fungicide treatments. After inoculation, the plants were kept in a dark dew room with 100% relative humidity for two days to permit spores to germinate and infect the leaf. The plants were then transferred to a greenhouse for disease to develop. Fungicide formulation and application were made as described in Example A. Disease assessment was conducted as described in Example A.

Zymoseptoria tritici = experiment: Septoria leaf blotch of wheat, whole-plant fungicidal activity (SEPTTR); format: in vivo, Zymoseptoria tritici on wheat plants (variety 'Yuma'); conditions: read-out: % Disease Control Rating SEPTTR
Experimental: Example A: Evaluation of Fungicidal Activity: Septoria Leaf Blotch of Wheat (Zymoseptoria tritici; Bayer Code […]) Technical grades of materials were dissolved in acetone, which were then mixed with nine volumes of water (H2O) containing 110 ppm Triton X-100. The fungicide solutions were applied onto wheat seedlings using an automated booth sprayer to run-off. All sprayed plants were allowed to air dry prior to further handling. All fungicides were evaluated using the aforementioned method for their activity vs. all target diseases, unless stated otherwise. Wheat plants (variety 'Yuma') were grown from seed in a greenhouse in soil-less potting mix until the first leaf was fully emerged, with 7-10 seedlings per pot. These plants were inoculated with an aqueous spore suspension of Zymoseptoria tritici either 3 days prior to fungicide treatment (3 day curative; 3DC) or 1 day after fungicide treatment (1 day protectant; 1DP). After inoculation the plants were kept in 100% relative humidity for three days to permit spores to germinate and infect the leaf. The plants were then transferred to a greenhouse for disease to develop. When disease symptoms were fully expressed on the 1st leaves of untreated plants, infection levels were assessed on a scale of 0 to 100 percent disease severity. Percent disease control was calculated using the ratio of disease severity on treated plants relative to untreated plants.

Phakopsora pachyrhizi = experiment: Asian soybean rust, whole-plant fungicidal activity (PHAKPA); format: in vivo; conditions: read-out: % Disease Control Rating PHAKPA
Experimental: Example C: Evaluation of Fungicidal Activity: Asian Soybean Rust (Phakopsora pachyrhizi; Bayer Code […]) Technical grades of materials were dissolved in acetone, which were then mixed with nine volumes of H2O containing 0.011% Tween-20. The fungicide solutions were applied onto soybean seedlings using an automated booth sprayer to run-off. All sprayed plants were allowed to air dry prior to further handling. Soybean plants (variety 'Williams 82') were grown in soil-less potting mix, with one plant per pot. Ten-day-old seedlings were used for testing. Plants were inoculated as described in Example A. Plants were incubated for 24 h in a dark dew room with 100% relative humidity then transferred to a growth room for disease to develop. Fungicide formulation and application were made as described in Example A. When disease symptoms were fully expressed, disease severity was assessed on the sprayed leaves on a scale of 0 to 100 percent. Percent disease control was calculated using the ratio of disease severity on treated plants relative to untreated plants.

| Compound | pest or weed control at 200 ppm (Puccinia triticina) [%] | pest or weed control at 200 ppm (Rhynchosporium commune) [%] | pest or weed control at 200 ppm (Zymoseptoria tritici; 24 h, 1DP (1 day protectant)) [%] | pest or weed control at 200 ppm (Zymoseptoria tritici; 72 h, 3DC (3 day curative)) [%] | pest or weed control at 200 ppm (Phakopsora pachyrhizi; 24 h, 1DP (1 day protectant)) [%] | pest or weed control at 200 ppm (Phakopsora pachyrhizi; 72 h, 3DC (3 day curative)) [%] |
| --- | --- | --- | --- | --- | --- | --- |
| CCc1ccc(CC(=O)c2cc(C)c(/N=C/N(C)CC)cc2C)cc1 [Compound 6] | > 85 | > 85 | > 85 | 20 to 50 | > 85 | > 85 |
| CCN(C)/C=N/c1ccc(C(=O)Cc2ccc(C)cc2F)c(C)c1C [Compound 11] | < 20 | < 20 | < 20 | < 20 | > 85 | > 85 |
| CCN(C)/C=N/c1ccc(C(=O)Cc2ccc(C)cc2)c(C)c1C [Compound 12] | < 20 | < 20 | < 20 | < 20 | 50 to 85 | 50 to 85 |
| CCN(C)/C=N/c1ccc(C(=O)Cc2ccccc2)c(C)c1C [Compound 16] | < 20 | < 20 | < 20 | < 20 | 50 to 85 | > 85 |
| CCN(C)/C=N/c1cc(C)c(C(=O)C2CCCC2)cc1C [Compound 17] | > 85 | > 85 | 50 to 85 | < 20 | > 85 | > 85 |
| CCN(C)/C=N/c1cc(C)c(C(=O)Cc2ccccc2F)cc1C [Compound 18] | 50 to 85 | > 85 | 50 to 85 | < 20 | > 85 | > 85 |
| CCN(C)/C=N/c1cc(C)c(C(=O)CCC(F)(F)F)cc1C [Compound 19] | > 85 | 20 to 50 | < 20 | 20 to 50 | > 85 | > 85 |
| CCN(C)/C=N/c1cc(C)c(C(=O)Cc2ccc(F)cc2F)cc1C [Compound 20] | > 85 | > 85 | < 20 | < 20 | > 85 | > 85 |
| CCN(C)/C=N/c1cc(C)c(C(=O)CC(C)(C)C)cc1C [Compound 21] | > 85 | > 85 | 50 to 85 | < 20 | > 85 | > 85 |
| CCN(C)/C=N/c1cc(C)c(C(=O)CCC(C)C)cc1C [Compound 22] | > 85 | > 85 | < 20 | < 20 | > 85 | > 85 |
| CCN(C)/C=N/c1cc(C)c(C(=O)Cc2c(F)cc(F)cc2F)cc1C [Compound 23] | > 85 | > 85 | 20 to 50 | < 20 | > 85 | > 85 |
| CCN(C)/C=N/c1cc(C)c(C(=O)Cc2cccc(C(=O)OC)c2)cc1C [Compound 24] | > 85 | < 20 | < 20 | < 20 | < 20 | < 20 |
| CCN(C)/C=N/c1cc(C)c(C(=O)C2CCC2)cc1C [Compound 25] | > 85 | > 85 | 20 to 50 | < 20 | > 85 | > 85 |
| CCN(C)/C=N/c1cc(C)c(C(=O)C2CCCCC2)cc1C [Compound 26] | > 85 | > 85 | > 85 | 20 to 50 | > 85 | > 85 |
| C=CCN(C)/C=N/c1cc(C)c(C(=O)CC2CCCCC2)cc1C [Compound 39] | – | – | – | – | 50 to 85 | > 85 |
| Cc1cc(C(=O)CC2CCCCC2)c(C)cc1/N=C/N(C)C1CCCCC1 [Compound 40] | – | – | – | – | < 20 | < 20 |
| Cc1cc(C(=O)CC2CCCCC2)c(C)cc1/N=C/N1CCCC1 [Compound 41] | – | – | – | – | > 85 | > 85 |
| Cc1cc(C(=O)CC2CCCCC2)c(C)cc1/N=C/N1CCCCC1 [Compound 42] | – | – | – | – | > 85 | > 85 |
| Cc1cc(C(=O)CC2CCCCC2)c(C)cc1/N=C/N1CCOCC1 [Compound 43] | – | – | – | – | < 20 | < 20 |
| Cc1cc(C(=O)CC2CCCCC2)c(C)cc1/N=C/N(C)c1ccccc1 [Compound 44] | – | – | – | – | < 20 | < 20 |
| CCN(C)/C=N/c1ccc(C(=O)C2CCC2)cc1C [Compound 95] | > 85 | – | – | – | 20 to 50 | 20 to 50 |
| CCN(C)/C=N/c1ccc(C(=O)CC2CCCC2)cc1 [Compound 97] | 50 to 85 | – | – | – | 50 to 85 | 50 to 85 |
| CCN(C)/C=N/c1cc(C(F)(F)F)c(C(=O)C2CCC2)cc1C [Compound 98] | < 20 | – | – | – | 20 to 50 | 20 to 50 |
| CCN(C)/C=N/c1cc(OC)c(C(=O)C2CCC2)cc1C [Compound 99] | > 85 | – | – | – | > 85 | > 85 |
| CCN(C)/C=N/c1cc(C)c(C(=O)C2CCC2)cc1C(F)(F)F [Compound 100] | > 85 | – | – | – | > 85 | > 85 |
| CCN(C)/C=N/c1ccc(C(=O)C2CCC2)c(C)c1 [Compound 101] | < 20 | – | – | – | < 20 | < 20 |
| CCN(C)/C=N/c1cc(C)c(C(=O)C2CCC2)cc1F [Compound 102] | > 85 | – | – | – | 50 to 85 | > 85 |
| CCN(C)/C=N/c1cc(C)c(C(=O)C2CCC2)cc1OC [Compound 103] | 50 to 85 | – | – | – | 20 to 50 | > 85 |
| CCN(C)/C=N/c1ccc(C(=O)Cc2c(F)cc(F)cc2F)cc1C [Compound 104] | > 85 | – | – | – | 50 to 85 | > 85 |
